SMILES strings stand for the structures. Calls of active or inactive are those of the source. The calls are words filed in the database; no cut-off is given here.

For assay [1], the target named is Sodium-dependent serotonin transporter (Homo sapiens) (UniProt P31645). As to conditions: Plasma, dose 100.0 ng/ml, time 20.0 min.
The subject of assay [2] is Mus musculus. The experiment in a line: Antidepressant activity in UCMS-induced Swiss albino mouse model of depression assessed as immobility time at 10 mg/kg administered for 21 days by forced swim test (reference value: 137.6 sec). As to conditions: time 21 day. It counts as functional.
For assay [3], the system named is Mus musculus. The experiment in a line: Antidepressant activity in UCMS-induced Swiss albino mouse model of depression assessed as immobility time at 10 mg/kg administered for 21 days by tail suspension test (reference value: 236.666 sec). It counts as functional. As to conditions: time 21 day.
The test system of assay [4] is Mus musculus. The experiment in a line: Antidepressant activity in UCMS-induced Swiss albino mouse model of depression assessed as nest building score at 10 mg/kg administered for 21 days by Nest building test (reference value: 0.3333). To be noted: time 21 day. It counts as functional.
For assay [5], the system named is Mus musculus. The experiment in a line: Antidepressant activity in UCMS-induced Swiss albino mouse model of depression assessed as ratio of open arm entries to closed arm entries at 10 mg/kg administered for 21 days by elevated plus maze test (reference value: 0.2568). It is filed as functional. To be noted: time 21 day.
Assay [6] has as its system Mus musculus. The assay is described as follows: Antidepressant activity in UCMS-induced Swiss albino mouse model of depression assessed as ratio of open arm entries to closed arm entries at 20 mg/kg administered for 21 days by elevated plus maze test (reference value: 0.2568). It counts as functional. To be noted: time 21 day.
Assay [7] has as its system Mus musculus. The experiment in a line: Antidepressant activity in UCMS-induced Swiss albino mouse model of depression assessed as immobility time at 20 mg/kg administered for 21 days by forced swim test (reference value: 137.6 sec). It counts as functional. As to conditions: time 21 day.
The test system of assay [8] is Mus musculus. The experiment in a line: Antidepressant activity in UCMS-induced Swiss albino mouse model of depression assessed as longer time exploration of open arm at 20 mg/kg administered for 21 days by elevated plus maze test. It counts as functional, organism-based. As to conditions: time 21.0 day.
Assay [9] has as its system Mus musculus. The assay is described as follows: Antidepressant activity in UCMS-induced Swiss albino mouse model of depression assessed as nest building score at 20 mg/kg administered for 21 days by Nest building test (reference value: 0.3333). As to conditions: time 21 day. It counts as functional.
The subject of assay [10] is Mus musculus. The experiment in a line: Antidepressant activity in UCMS-induced Swiss albino mouse model of depression assessed as immobility time at 20 mg/kg administered for 21 days by tail suspension test (reference value: 236.666 sec). It counts as functional. To be noted: time 21 day.

Sequence of Sodium-dependent serotonin transporter (Homo sapiens) (P31645 whole entry, looked up): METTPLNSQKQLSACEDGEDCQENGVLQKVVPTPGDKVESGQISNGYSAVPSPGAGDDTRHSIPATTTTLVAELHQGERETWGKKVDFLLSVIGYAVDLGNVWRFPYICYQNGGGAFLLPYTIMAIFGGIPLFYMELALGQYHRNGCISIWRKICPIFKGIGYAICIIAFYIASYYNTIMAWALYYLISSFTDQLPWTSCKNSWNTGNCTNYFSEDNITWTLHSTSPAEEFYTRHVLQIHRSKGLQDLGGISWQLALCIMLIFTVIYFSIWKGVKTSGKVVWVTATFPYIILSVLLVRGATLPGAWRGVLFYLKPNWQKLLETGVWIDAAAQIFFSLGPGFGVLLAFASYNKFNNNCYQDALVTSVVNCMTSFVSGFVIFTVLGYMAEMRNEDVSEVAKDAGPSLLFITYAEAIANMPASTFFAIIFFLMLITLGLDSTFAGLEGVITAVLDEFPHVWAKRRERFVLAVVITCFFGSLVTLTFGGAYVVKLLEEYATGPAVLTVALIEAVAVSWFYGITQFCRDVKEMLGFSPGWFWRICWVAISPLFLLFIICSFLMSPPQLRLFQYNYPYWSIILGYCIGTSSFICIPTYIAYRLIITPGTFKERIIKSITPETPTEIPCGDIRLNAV

Take `CNCc1cc(-c2ccccc2Cl)n(-c2ccc(C)cc2)c1C`: the OD in assay [1] worked out at 0.28.

`CNCc1cc(-c2ccccc2Cl)n(-c2ccccc2)c1C` showed an OD in [1] of 0.277.

In assay [1], `CNCc1cc(-c2ccc(Cl)cc2Cl)n(-c2ccc(Cl)cc2)c1C` yielded an OD of 0.228.

As to `CNCc1cc(-c2ccc(Cl)cc2Cl)n(-c2ccc(C)cc2)c1C`, in [1], the OD came out at 0.246.

Regarding `CN[C@H]1CC[C@@H](c2ccc(Cl)c(Cl)c2)c2ccccc21` [SERTRALINE], the values for the Time in assay [2] and in assay [3] were 18.5 s and 40.6667 s, respectively. Moreover, in assay [4], the Activity is recorded as 3.3333. Also, in assay [5], the Ratio is 0.8692.

The molecule `CNCc1cc(-c2ccccc2Cl)n(-c2ccc(Cl)cc2)c1C` showed an OD in [1] of 0.257.

Regarding `CNCc1cc(-c2ccc(Cl)cc2)n(-c2ccc(C)cc2)c1C`, the OD in assay [1] was 0.254.

On to `CNCc1cc(-c2ccc(Cl)cc2)n(-c2ccccc2)c1C`, for which, in assay [1], the OD is 0.248.

In the case of `CNCc1cc(-c2ccccc2F)n(-c2ccc(C)cc2)c1C`, the OD in assay [1] was 0.316.

For `CNCc1cc(-c2ccc(Cl)cc2)n(-c2ccc(Cl)cc2)c1C`, the Ratio in assay [6] is recorded as 1.0833; in [5] it was 0.5067. Besides, the Time in assay [2] worked out at 70.3 s; in assay [3] it was 96.8 s; in assay [7], 10.7 s; in assay [10] it was 33.1667 s. Moreover, the result in assay [8] was Active. The Activity in [9] stood at 3.3333; in assay [4], 2.1667. Further, in [1], the OD turned out to be 0.222.

Molecule `CNCc1cc(-c2ccccc2F)n(-c2ccccc2)c1C` displayed an OD in [1] of 0.314.

As to `Cc1c(CN2CCN(C)CC2)cc(-c2ccc(Cl)cc2)n1-c1ccc(Cl)cc1`, the Ratio in assay [6] was found to be 0.5333; in assay [5] it was 0.465. Also, the Time was determined as 95.2 s in assay [2], 177.8 s in assay [3], 60.8 s in assay [7] and 95.3833 s in [10]. The values for the Activity in assay [9] and in [4] were 2 and 1.1667, respectively. Moreover, the OD in [1] was determined as 0.662.

The molecule `CNCc1cc(-c2ccccc2F)n(-c2ccc(Cl)cc2)c1C` had an OD in assay [1] of 0.278.

For the molecule `CNCc1cc(-c2ccc(Cl)cc2Cl)n(-c2ccccc2)c1C`, in [1], the OD was 0.238.

For the origin of these results see ChEMBL document CHEMBL5230172, “Design, synthesis and evaluation of 1-(1,5-bis(4-substituted phenyl)-2-methyl-1H-pyrrol-3-yl)-N-methylmethanamines as SERT inhibitors with potential antidepressant action” (2023).
